Earlier results, collected in patent publication EP0409862B1, “TOPICAL PREPARATIONS” (Seton Healthcare Group plc, priority 1988, dated 1989).

SMILES: COC1=CC(=O)C[C@@H](C)[C@]12Oc1c(Cl)c(OC)cc(OC)c1C2=O [Griseofulvin]
- solubility in various organic liquids such as alcohols: soluble
- solubility in water (fine powder): essentially insoluble
